Reference: ChEMBL document CHEMBL1201862, “PubChem BioAssay data set” (2004)
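Where inhibition never reached the appropriate level, the endpoint shown equals the highest concentration tested. Otherwise, values were interpolated linearly from a five-concentration, 48-hour dose response in 96-well plates. GI50 = concentration required for 50% inhibition of growth.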 Activity calls are given as the source filed them. No stated cut-off is given here; in the data, active = GI50 up to about 1.1 µM and inactive = higher.

Tests used:
Assay in all cases: inhibition of tumour cell growth, NCI panel, 48 h
786-0 = test system: 786-0
A498 = test system: A498
A549 = test system: A549
CAKI-1 = test system: CAKI-1
COLO 205 = test system: COLO 205
DU-145 = test system: DU-145
HCT-15 = test system: HCT-15
HOP-62 = test system: HOP-62
HT-29 = test system: HT-29
K562 = test system: K562
LOX IMVI = test system: LOX IMVI
MDA-MB-435 = test system: MDA-MB-435
MDA-N = test system: MDA-N
NCI-H23 = test system: NCI-H23
OVCAR-3 = test system: OVCAR-3
OVCAR-8 = test system: OVCAR-8
PC-3 = test system: PC-3
RXF 393 = test system: RXF 393
SF-268 = test system: SF-268
SK-MEL-28 = test system: SK-MEL-28

| SMILES | GI50 (786-0) | GI50 (A498) | GI50 (A549) | GI50 (CAKI-1) | GI50 (COLO 205) | GI50 (DU-145) | GI50 (HCT-15) | GI50 (HOP-62) | GI50 (HT-29) | GI50 (K562) | GI50 (LOX IMVI) | GI50 (MDA-MB-435) | GI50 (MDA-N) | GI50 (NCI-H23) | GI50 (OVCAR-3) | GI50 (OVCAR-8) | GI50 (PC-3) | GI50 (RXF 393) | GI50 (SF-268) | GI50 (SK-MEL-28) |
| --- | --- | --- | --- | --- | --- | --- | --- | --- | --- | --- | --- | --- | --- | --- | --- | --- | --- | --- | --- | --- |
| CC(C)NC(=O)CN1CCN(C2=CC(=O)c3c(O)ccc(O)c3C2=O)CC1 | 16.4 µM (inactive) | 24.2 µM (inactive) | 16.4 µM (inactive) | 26.2 µM (inactive) | 3 µM (inactive) | 16.1 µM (inactive) | 8.75 µM | 18.2 µM (inactive) | 3.62 µM (inactive) | 20.6 µM (inactive) | 6.1 µM (inactive) | 1.93 µM (inactive) | 2.79 µM (inactive) | 9.4 µM (inactive) | 2.58 µM (inactive) | 9.04 µM (inactive) | 17.5 µM (inactive) | 17.2 µM (inactive) | 24.3 µM (inactive) | 17.1 µM (inactive) |
| Cc1ccc(C)c(/C(=N\N=C(N)N)C2CC2)c1 | 37 µM (inactive) | 47.5 µM (inactive) | 43.3 µM (inactive) | > 100 µM (inactive) | 35.1 µM (inactive) | 58.9 µM (inactive) | 48.6 µM | 35.8 µM (inactive) | 29.3 µM (inactive) | 20.5 µM (inactive) | 32.4 µM (inactive) | 22.8 µM (inactive) | 23.4 µM (inactive) | 20.7 µM (inactive) | 94.6 µM (inactive) | 46.6 µM (inactive) | 48.5 µM (inactive) | > 100 µM (inactive) | 39.5 µM (inactive) | 35 µM (inactive) |
| CC(C)Cn1cnnc1NS(=O)(=O)c1cc(C(=O)NN)c(Cl)cc1S | > 10 µM (inactive) | > 10 µM (inactive) | > 10 µM (inactive) | > 10 µM (inactive) | > 10 µM (inactive) | > 10 µM (inactive) | > 10 µM | > 10 µM (inactive) | > 10 µM (inactive) | > 10 µM (inactive) | > 10 µM (inactive) | > 10 µM (inactive) | > 10 µM (inactive) | > 10 µM (inactive) | > 10 µM (inactive) | > 10 µM (inactive) | > 10 µM (inactive) | > 10 µM (inactive) | > 10 µM (inactive) | > 10 µM (inactive) |
| O=C(O)c1nc2ccc(Cl)cc2[nH]c1=O | > 100 µM (inactive) | > 100 µM (inactive) | > 100 µM (inactive) | > 100 µM (inactive) | > 100 µM (inactive) | > 100 µM (inactive) | > 100 µM | > 100 µM (inactive) | > 100 µM (inactive) | > 100 µM (inactive) | > 100 µM (inactive) | > 100 µM (inactive) | > 100 µM (inactive) | > 100 µM (inactive) | > 100 µM (inactive) | > 100 µM (inactive) | > 100 µM (inactive) | > 100 µM (inactive) | > 100 µM (inactive) | > 100 µM (inactive) |
| O=C1C=C(C2=C(C3=CC(=O)c4ccccc4C3=O)C(=O)c3ccccc3C2=O)C(=O)c2ccccc21 | 2.9 µM (inactive) | 16.9 µM (inactive) | 9.48 µM (inactive) | 4.7 µM (inactive) | 3.94 µM (inactive) | 5.18 µM (inactive) | 9.89 µM | 14.8 µM (inactive) | 3.12 µM (inactive) | 2.67 µM (inactive) | 3.36 µM (inactive) | 2.47 µM (inactive) | 2.25 µM (inactive) | 7.43 µM (inactive) | 2.84 µM (inactive) | 5.62 µM (inactive) | 10.4 µM (inactive) | 1.69 µM (inactive) | 12.6 µM (inactive) | 14 µM (inactive) |
| C[N+]12CCCCC1C(CN1C(=O)c3ccccc3C1=O)CCC2 (stereo not given) | > 100 µM (inactive) | > 100 µM (inactive) | > 100 µM (inactive) | > 100 µM (inactive) | > 100 µM (inactive) | > 100 µM (inactive) | > 100 µM | > 100 µM (inactive) | > 100 µM (inactive) | > 100 µM (inactive) | > 100 µM (inactive) | > 100 µM (inactive) | > 100 µM (inactive) | > 100 µM (inactive) | > 100 µM (inactive) | > 100 µM (inactive) | > 100 µM (inactive) | > 100 µM (inactive) | > 100 µM (inactive) | > 100 µM (inactive) |
| COC(=O)c1ccccc1CC1Cc2cc3c(cc2C1)CCC3 | 36.5 µM (inactive) | 49.4 µM (inactive) | 36.1 µM (inactive) | 37.9 µM (inactive) | 23.8 µM (inactive) | 40.5 µM (inactive) | 48.8 µM | 41.4 µM (inactive) | 29.2 µM (inactive) | 23 µM (inactive) | 24 µM (inactive) | 29.4 µM (inactive) | 47.8 µM (inactive) | 38.5 µM (inactive) | 32.7 µM (inactive) | 56.8 µM (inactive) | 39.3 µM (inactive) | 20.9 µM (inactive) | 40.8 µM (inactive) | 29.3 µM (inactive) |
| COc1cc(S(=O)(=O)Nc2ccc(-c3csc(/N=C\C=C\c4ccccc4)n3)cc2)ccc1Cl | > 100 µM (inactive) | 20.6 µM (inactive) | 80.5 µM (inactive) | > 100 µM (inactive) | 36.7 µM (inactive) | 45.5 µM (inactive) | 50 µM | 43 µM (inactive) | > 100 µM (inactive) | 31.2 µM (inactive) | 29.6 µM (inactive) | > 100 µM (inactive) | > 100 µM (inactive) | 30.9 µM (inactive) | > 100 µM (inactive) | 34.8 µM (inactive) | 19.9 µM (inactive) | 16.1 µM (inactive) | 29.9 µM (inactive) | > 100 µM (inactive) |
| O=C1C(=C/C=C2/SC(c3ccccc3)(c3ccccc3)c3ccccc32)C(=O)c2ccccc21 | > 100 µM (inactive) | > 100 µM (inactive) | > 100 µM (inactive) | > 100 µM (inactive) | > 100 µM (inactive) | > 100 µM (inactive) | > 100 µM | > 100 µM (inactive) | > 100 µM (inactive) | > 100 µM (inactive) | > 100 µM (inactive) | > 100 µM (inactive) | > 100 µM (inactive) | > 100 µM (inactive) | > 100 µM (inactive) | > 100 µM (inactive) | 80.7 µM (inactive) | > 100 µM (inactive) | > 100 µM (inactive) | > 100 µM (inactive) |
